Patent publication US8383581B2, “Short-chain peptides as parathyroid hormone (PTH) receptor agonist” (Cadila Healthcare Limited, priority 2009, dated 2013)
Where a SMILES comes first, the peptide text is derived from it. [ ]: non-standard residue; d: D form. ξ: configuration not given here. ξαMeBip(2'-Et,4'-OMe) = CCc1cc(OC)ccc1-c1ccc(CC(C)(N)C(=O)O)cc1; ξBip(2'-Et-4'-OMe) = CCc1cc(OC)ccc1-c1ccc(CC(N)C(=O)O)cc1; Arg(NO2) = N=C(NCCC[C@H](N)C(=O)O)N[N+](=O)[O-]; ξαMePhe(2,6-F2) = CC(N)(Cc1c(F)cccc1F)C(=O)O; αMePhe(2-F) = C[C@](N)(Cc1ccccc1F)C(=O)O; ξαMePhe(2-F) = CC(N)(Cc1ccccc1F)C(=O)O; hhPhe = N[C@@H](CCCc1ccccc1)C(=O)O; hArg = N=C(N)NCCCC[C@H](N)C(=O)O; Cit = NC(=O)NCCC[C@H](N)C(=O)O; ξαMeF = CC(N)(Cc1ccccc1)C(=O)O; Nle = CCCC[C@H](N)C(=O)O; Orn = NCCC[C@H](N)C(=O)O; ξαMeP = CC1(C(=O)O)CCCN1; Ac5c = NC1(C(=O)O)CCCC1; Aib = CC(C)(N)C(=O)O

Key:
Assay type in all cases: in vitro ADME
[1] = Stability of peptides in human plasma; settings: human, plasma; for metabolised at 24 h, 2 μM: pH 7.8
How it was run: (§1)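 Peptides at 2 μM final incubated 0–24 h at 37 °C (50 mM triethanolamine-HCl, pH 7.8) in each matrix, matrix level set to degrade ~50% PTH(1-34) in 1 h; TFA-quenched, C18 HPLC at 206 nm with ESI-MS peak identification; percent degradation from peak areas at each time point.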

[2] = Stability of peptides in simulated gastric fluid (pH 1.5; HCl, NaCl and Pepsin); settings: pH 1.5; for % degradation of peptides in 24 h when incubated with simulated gastric fluid: 2 μM; for half-life / half-life (t1/2) in simulated gastric fluid: simulated gi fluid
[3] = Stability of peptides in simulated intestinal fluid (pH 7.5); settings: pH 7.5; for half-life / half-life (t1/2) in simulated intestinal fluid: simulated gi fluid; for % degradation of peptides in 24 h when incubated with simulated intestinal fluid: 2 μM
How it was run: as §1

[4] = Stability of peptides in human liver microsomes; settings: human, microsomes; for % degradation of peptides in 24 h when incubated with liver microsomes: 2 μM, pH 7.8
How it was run: as §1

SMILES	half-life [1]	metabolised at 24 h, 2 μM [1]	% degradation of peptides in 24 h when incubated with simulated gastric fluid [2]	half-life [2]	half-life [3]	% degradation of peptides in 24 h when incubated with simulated intestinal fluid [3]	half-life [4]	% degradation of peptides in 24 h when incubated with liver microsomes [4]	half-life (t1/2) in human plasma [1]	half-life (t1/2) in liver microsomes [4]	half-life (t1/2) in simulated gastric fluid [2]	half-life (t1/2) in simulated intestinal fluid [3]
CCCC[C@H](NC(=O)C(C)(Cc1ccccc1F)NC(=O)[C@H](CCC(N)=O)NC(=O)[C@@H](NC(=O)[C@H](CCC(=O)O)NC(=O)C(C)(C)NC(=O)[C@@H](NC(=O)C(C)(C)N)C(C)C)[C@@H](C)CC)C(=O)N[C@@H](Cc1c[nH]cn1)C(=O)N[C@@H](CCC(N)=O)C(=O)NC(C)(Cc1c(F)cccc1F)C(=O)NC(C)(C)C(=O)NC(C)(C)C(=O)NC(C)(Cc1ccccc1F)C(N)=O (stereo partly drawn) [Seq. ID. 490] (H-[Aib]V[Aib]EIQ[ξαMePhe(2-F)][Nle]HQ[ξαMePhe(2,6-F2)][Aib][Aib][ξαMePhe(2-F)]-NH2)	> 24 h	0%	43%	4 h	> 24 h	00%	2 h	84%				
CCCC[C@H](NC(=O)C(C)(Cc1ccccc1F)NC(=O)[C@H](CCC(N)=O)NC(=O)[C@@H](NC(=O)[C@H](CCC(=O)O)NC(=O)C(C)(C)NC(=O)[C@@H](NC(=O)C(C)(C)N)C(C)C)[C@@H](C)CC)C(=O)N[C@@H](Cc1c[nH]cn1)C(=O)N[C@@H](CCC(N)=O)C(=O)N[C@@H](CCCN)C(=O)NC(C)(C)C(=O)N[C@@H](CCCNC(N)=O)C(=O)NC(C)(Cc1c(F)cccc1F)C(N)=O (stereo partly drawn) [Seq. ID. 290] (H-[Aib]V[Aib]EIQ[ξαMePhe(2-F)][Nle]HQ[Orn][Aib][Cit][ξαMePhe(2,6-F2)]-NH2)		75%	100%	0.5 h	0.5 h	100%	0.5 h	100%	(9) h			
CCc1cc(OC)ccc1-c1ccc(CC(C)(NC(=O)[C@H](CCCCN)NC(=O)[C@H](C)NC(=O)[C@H](CCCCNC(=N)N)NC(=O)[C@H](CCC(N)=O)NC(=O)[C@H](Cc2c[nH]cn2)NC(=O)[C@H](CCSC)NC(=O)[C@H](CC(C)C)NC(=O)[C@H](CCC(N)=O)NC(=O)[C@@H](NC(=O)[C@H](CCC(=O)O)NC(=O)C(C)(C)NC(=O)[C@@H](NC(=O)C(C)(C)N)C(C)C)[C@@H](C)CC)C(=O)N[C@@H](CCCc2ccccc2)C(N)=O)cc1 (stereo partly drawn) [Seq. ID. 890] (H-[Aib]V[Aib]EIQLMHQ[hArg]AK[ξαMeBip(2'-Et,4'-OMe)][hhPhe]-NH2)	> 24 h	0%	00%	> 24 h	> 24 h	00%		32%		(5) h		
CCCC[C@H](NC(=O)C(C)(Cc1ccccc1F)NC(=O)[C@H](CCC(N)=O)NC(=O)[C@@H](NC(=O)[C@H](CCC(=O)O)NC(=O)C(C)(C)NC(=O)[C@@H](NC(=O)C(C)(C)N)C(C)C)[C@@H](C)CC)C(=O)N[C@@H](Cc1c[nH]cn1)C(=O)N[C@@H](CCC(N)=O)C(=O)N[C@@H](CCCCNC(=N)N)C(=O)N1CCCC1(C)C(=O)N[C@@H](CCCCN)C(=O)NC(C)(Cc1ccccc1)C(N)=O (stereo partly drawn) [Seq. ID. 25] (H-[Aib]V[Aib]EIQ[ξαMePhe(2-F)][Nle]HQ[hArg][ξαMeP]K[ξαMeF]-NH2)	8 h	75%	12%			46%	1 h	83%			(8) h	(6) h
CCCCC(C)(NC(=O)[C@H](CC(C)C)NC(=O)[C@H](CCC(N)=O)NC(=O)[C@@H](NC(=O)[C@H](CCC(=O)O)NC(=O)C(C)(C)NC(=O)[C@@H](NC(=O)C1(NC(=O)[C@@H](N)C(C)C)CCCC1)C(C)C)[C@@H](C)CC)C(=O)N[C@@H](Cc1c[nH]cn1)C(=O)N[C@@H](CCC(N)=O)C(=O)N[C@@H](CCCCNC(=N)N)C(=O)N[C@@H](C)C(=O)N[C@@H](CCCCNC(=N)N)C(=O)NC(Cc1ccc(-c2ccc(OC)cc2CC)cc1)C(=O)NC(C)(CCCc1ccccc1)C(N)=O (single isomer, unassigned) [Seq. ID. 925]		78%	100%	0.5 h	0.5 h	100%	0.5 h	100%	(9) h			
CCCC[C@H](NC(=O)C(C)(Cc1ccccc1F)NC(=O)[C@H](CCC(N)=O)NC(=O)[C@@H](NC(=O)[C@H](CCC(=O)O)NC(=O)C(C)(C)NC(=O)[C@@H](NC(=O)C(C)(C)N)C(C)C)[C@@H](C)CC)C(=O)N[C@@H](Cc1c[nH]cn1)C(=O)N[C@@H](CCC(N)=O)C(=O)N[C@@H](CCCCNC(=N)N)C(=O)N[C@@H](C)C(=O)NC(C)(C)C(=O)NC(C)(Cc1ccccc1F)C(N)=O (stereo partly drawn) [Seq. ID. 161] (H-[Aib]V[Aib]EIQ[ξαMePhe(2-F)][Nle]HQ[hArg]A[Aib][ξαMePhe(2-F)]-NH2)	8 h	78%	14%			43%	1 h	80%			(8) h	(6) h
CCCC[C@H](NC(=O)C(C)(Cc1c(F)cccc1F)NC(=O)[C@H](CCC(N)=O)NC(=O)[C@@H](NC(=O)[C@H](CCC(=O)O)NC(=O)C(C)(C)NC(=O)[C@@H](NC(=O)C1(N)CCCC1)C(C)C)[C@@H](C)CC)C(=O)N[C@@H](Cc1c[nH]cn1)C(=O)N[C@@H](CCC(N)=O)C(=O)N[C@@H](CCCCNC(=N)N)C(=O)N[C@@H](C)C(=O)N[C@@H](CCCNC(=N)N)C(=O)NC(Cc1ccc(-c2ccc(OC)cc2CC)cc1)C(=O)N[C@@H](CCCc1ccccc1)C(N)=O (stereo partly drawn) [Seq. ID. 811] (H-[Ac5c]V[Aib]EIQ[ξαMePhe(2,6-F2)][Nle]HQ[hArg]AR[ξBip(2'-Et-4'-OMe)][hhPhe]-NH2)	> 24 h	0%	52%	4 h	> 24 h	00%	2 h	81%				
CCCC[C@H](NC(=O)[C@](C)(Cc1ccccc1F)NC(=O)[C@H](CCC(N)=O)NC(=O)[C@@H](NC(=O)[C@H](CCC(=O)O)NC(=O)C(C)(C)NC(=O)[C@@H](NC(=O)C(C)(C)N)C(C)C)[C@@H](C)CC)C(=O)N[C@@H](Cc1c[nH]cn1)C(=O)N[C@@H](CCC(N)=O)C(=O)N[C@@H](CCCN)C(=O)N[C@@H](C)C(=O)N[C@@H](CCCNC(=N)N[N+](=O)[O-])C(=O)N[C@@](C)(Cc1ccccc1F)C(N)=O [Seq. ID. 329] (H-[Aib]V[Aib]EIQ[αMePhe(2-F)][Nle]HQ[Orn]A[Arg(NO2)][αMePhe(2-F)]-NH2)		70%	100%	0.5 h	0.5 h	100%	0.5 h	100%	(9) h			
CCCC[C@H](NC(=O)C(C)(Cc1ccccc1F)NC(=O)[C@H](CCC(N)=O)NC(=O)[C@@H](NC(=O)[C@H](CCC(=O)O)NC(=O)C(C)(C)NC(=O)[C@@H](NC(=O)C1(N)CCCC1)C(C)C)[C@@H](C)CC)C(=O)N[C@@H](Cc1c[nH]cn1)C(=O)N[C@@H](CCC(N)=O)C(=O)N[C@@H](CCCCNC(=N)N)C(=O)NC(C)(C)C(=O)N[C@@H](CCCNC(=N)N[N+](=O)[O-])C(=O)NC(C)(Cc1ccccc1F)C(N)=O (stereo partly drawn) [Seq. ID. 250] (H-[Ac5c]V[Aib]EIQ[ξαMePhe(2-F)][Nle]HQ[hArg][Aib][Arg(NO2)][ξαMePhe(2-F)]-NH2)	8 h	78%	14%			43%	1 h	80%			(8) h	(6) h
